# Like-named read-outs stand apart in the source and are kept apart here. Positions of bridges follow the written chain, without caps; N, C: chain ends. No end group written: not given here.
# Assays:
# [1] = test system: Pseudotyped SARS-CoV-2 BA.4.6; settings: Pseudotyped BA.4.6, 48 h
# [2] = test system: Pseudotyped SARS-CoV-2 BA.2.12.1; settings: Pseudotyped BA.2.12.1, 48 h
# [3] = test system: Pseudotyped SARS-CoV-2 BA.2.75; settings: Pseudotyped BA.2.75, 48 h
# [4] = test system: Pseudotyped SARS-CoV-2 BF.7; settings: Pseudotyped BF.7, 48 h
# [5] = test system: Pseudotyped SARS-CoV-2 BQ.1.1; settings: Pseudotyped BQ.1.1, 48 h
# [6] = test system: Pseudotyped SARS-CoV-2 BA.1; settings: Pseudotyped BA.1, 48 h
# [7] = test system: live SARS-CoV-2 Delta variant (B.1.617.2); settings: live Delta variant (B.1.617.2, 2 h)
# [8] = test system: Pseudotyped SARS-CoV-2 XBB; settings: 48 h
# [9] = test system: Pseudotyped SARS-CoV-2 BA.2; settings: Pseudotyped BA.2, 48 h
# [10] = test system: Pseudotyped SARS-CoV-2 BA.5; settings: Pseudotyped BA.5, 48 h
# [11] = test system: Pseudotyped SARS-CoV-2 N501Y; settings: 48 h
# [12] = test system: Pseudotyped SARS-CoV-2 C.37; settings: Pseudotyped C.37, 48 h
# [13] = test system: Pseudotyped SARS-CoV-2 B.1.1.7 (Alpha); settings: Pseudotyped B.1.1.7 (Alpha, 48 h)
# [14] = test system: Pseudotyped SARS-CoV-2 N501Y; settings: 48 h; remark: listed apart in the source
# [15] = test system: Pseudotyped SARS-CoV-2 B.1.1.7 (Alpha); settings: Pseudotyped B.1.1.7 (Alpha, 48 h); remark: listed apart in the source
# [16] = test system: Pseudotyped SARS-CoV-2 C.37; settings: Pseudotyped C.37, 48 h; remark: listed apart in the source
# [17] = test system: Pseudotyped SARS-CoV-2 B.1.617.2 (Delta); settings: Pseudotyped B.1.617.2 (Delta, 48 h)
# [18] = test system: Pseudotyped SARS-CoV-2 B.1.351 (Beta); settings: Pseudotyped B.1.351 (Beta, 48 h)
# [19] = test system: Pseudotyped SARS-CoV-2 B.1.617.2 (Delta); settings: Pseudotyped B.1.617.2 (Delta, 48 h); remark: listed apart in the source
# [20] = test system: Pseudotyped SARS-CoV-2 P.1 (Gamma); settings: Pseudotyped P.1 (Gamma, 48 h)
# [21] = test system: Pseudotyped SARS-CoV-2 P.1 (Gamma); settings: Pseudotyped P.1 (Gamma, 48 h); remark: listed apart in the source
# [22] = test system: Pseudotyped SARS-CoV-2 B.1.351 (Beta); settings: Pseudotyped B.1.351 (Beta, 48 h); remark: listed apart in the source
Compound,IC50 [1] [nM],IC50 [2] [nM],IC50 [3] [nM],IC50 [4] [nM],IC50 [5] [nM],IC50 [6] [nM],IC50 [7] [nM],IC50 [8] [nM],IC50 [9] [nM],IC50 [10] [nM],also measured
CC[C@H](C)[C@H](NC(=O)[C@H](C)NC(=O)[C@H](CCC(=O)O)NC(=O)[C@H](CCC(=O)O)NC(=O)[C@H](CC(C)C)NC(=O)[C@H](CCCCN)NC(=O)[C@H](CCCCN)NC(=O)[C@H](CCSC)NC(=O)[C@H](CCC(=O)O)NC(=O)[C@H](Cc1ccc(O)cc1)NC(=O)[C@H](CCC(=O)O)NC(=O)[C@H](CC(C)C)NC(=O)[C@H](CC(=O)O)NC(=O)[C@H](CC(C)C)NC(=O)[C@H](Cc1ccccc1)NC(=O)[C@@H](NC(=O)[C@@H](NC(=O)[C@H](CC(N)=O)NC(=O)[C@@H](NC(=O)[C@H](CCC(N)=O)NC(=O)[C@H](CC(=O)O)NC(=O)[C@H](CC(C)C)NC(=O)[C@@H](N)CO)[C@@H](C)CC)C(C)C)[C@@H](C)O)C(=O)N[C@@H](CCCCN)C(=O)N[C@@H](CCCCN)C(=O)N[C@@H](CC(C)C)C(=O)N[C@@H](CCC(=O)O)C(=O)N[C@@H](CCC(=O)O)C(=O)N[C@@H](CO)C(=O)N[C@@H](Cc1ccc(O)cc1)C(=O)N[C@H](C(=O)N[C@@H](CC(=O)O)C(=O)N[C@@H](CC(C)C)C(=O)N[C@@H](CCCCN)C(=O)N[C@@H](CCC(=O)O)C(=O)N[C@@H](CC(C)C)C(=O)O)[C@@H](C)CC [EK1],201,592,248,260,378,334,296,366,544,690,
DCAWHLGELVWCTSLDQINVTFLDLEYEMKKLEEAIKKLEESYIDLKEL (disulfide 2-12) [IBP-EK1],195,527,221,257,342,301,204,330,399,564,
CC(C)C[C@@H]1NC(=O)[C@H](Cc2c[nH]cn2)NC(=O)[C@H](Cc2c[nH]c3ccccc23)NC(=O)[C@H](C)NC(=O)[C@@H](NC(=O)[C@@H](N)CC(=O)O)CSSC[C@@H](C(=O)N[C@H](C(=O)O)[C@@H](C)O)NC(=O)[C@H](Cc2c[nH]c3ccccc23)NC(=O)[C@H](C(C)C)NC(=O)[C@H](CC(C)C)NC(=O)[C@H](CCC(=O)O)NC(=O)CNC1=O [IBP],> 50000,> 50000,> 50000,> 50000,> 50000,> 50000,> 50000,> 50000,> 50000,> 50000,IC50 [11]: > 50000 nM; IC50 [12]: > 50000 nM; IC50 [13]: > 50000 nM; IC50 [14]: > 50000 nM; IC50 [15]: > 50000 nM; IC50 [16]: > 50000 nM; IC50 [17]: > 50000 nM; IC50 [18]: > 50000 nM; IC50 [19]: > 50000 nM; IC50 [20]: > 50000 nM; IC50 [21]: > 50000 nM; IC50 [22]: > 50000 nM

# Source: article PMC10526447 (Biomolecules, 2023)
